Reference: patent US3941842A, “P,P'-Disubstituted α-trichloromethylbenzylanilines” (priority 1972, dated 1976)
Entries after “also recorded” stand apart in the source; their conditions may differ. Read-outs that look alike come from different tables or passages of the source.

Tests used:
[1] = background; cited from earlier work
[2] = test system: multifunction oxidase (MFO) enzymes; settings: background; cited from earlier work
insects = settings: background; cited from earlier work
Female housefly = assay: Metabolism of 3H-ethoxyaniline by female RSP housefly; settings: for Female housefly, percent 3H in Excreta / Female housefly, percent 3H in Homogenate: 24 hr after topical 1.0 μg 3H-ethoxyaniline (compound III)
Method: (§1) The compounds of the present invention were tested for insecticidal activity by standard methods, and compared with the insecticidal activities of DDT and symmetrical analogs of DDT, such methoxychlor. Toxicological methods for the determination of the topical LD50 values to adult female SNAIDM and RSP houseflies, Musca domestica L. and to Phormia regina, and LC50 values to Culex pipiens quinquefasciatus Say, and Anopheles albimanus Weid mosquitoes were described by Metcalf el al., 44 Bull. World Health Org. 363 (1971). The methods for evaluation of metabolism by mouse liver homogenate and by female RSP housefly and salt-marsh caterpillar larvae Estigmene acrea Drury, were described by Kapoor et al., 18 J. Agr. Food Chem. 1145 (1970). The techniques for model eocsystem evluation were described by Metcalf et al., 5 J. Environ. Sci. Tech. 709 (1971).
(§2) The biodegradability of an insecticide may be measured by administering measured doses of a tritium labeled test insecticide to a subject. Some time later the subject is sacrificed, liquefied, and a sample of the liquefied insect is placed on a thin layer chromotagraphy (tlc) plate. The plate is developed in a suitable solvent and Rf values of the various compounds contained in the sample are measured against known Rf values of previously synthesized theoretical metabolic breakdown products. The amount of each metabolite present may thus be measured by measuring the ^3 H at each separately resolved spot on the tlc plate. A permanent record may be made by exposing film to the plate to form a ratioautograph.

[3] = Metabolism of 3H-labeled compound by mouse liver homogenate; settings: for Mouse liver, percent 3H in homogenate: 0.01 μM 3H-labeled compound III, 1 hr incubation, NADPH and nicotinamide
Method: as §1, §2

Salt-marsh caterpillar = assay: Metabolism of 3H-ethoxyaniline by salt-marsh caterpillar larvae; settings: for Salt-marsh caterpillar, percent 3H in Excreta / Salt-marsh caterpillar, percent 3H in Homogenate: 24 hr after feeding 0.5 mg 3H-ethoxyaniline (compound III)
Method: as §1, §2

[4] = Model ecosystem: distribution, ecological magnification and Biodegradability Index; settings: for Concentration of ethoxyaniline equivalents in Culex (mosquito) / Concentration of ethoxyaniline equivalents in Gambusia (fish) / Concentration of ethoxyaniline equivalents in H2O / Concentration of ethoxyaniline equivalents in Oedogonium (algae) / Concentration of ethoxyaniline equivalents in Physa (snail): 5.0 mg 3H-ethoxyaniline to Sorghum; for biodegradability (in words): model ecosystem comparison
Description: After the amounts of the various metabolites have been calculated and a determination is made as to which of the metabolites are to be designated as "polar" and which are to be designated as "non-polar", a Biodegradability Index (amount of polar metabolites/amount of nonpolar metabolites) may be calculated. Remembering that nonpolar compounds, such as DDT are readily soluble in the fatty tissues, but are not readily soluble in water based solutions, and that the cell fluid is essentially a water based solution, the lower the Biodegradability Index, the lower the amount of biodegradability of the compound. The higher the amount of polarity, the greater the likelihood that the polar compound will dissolve in water, a very polar compound, and be eliminated from the cell.
The environmental fate of any new pesticide is a factor of paramount importance in determining how and where it might be used. The behavior of ^3 H-α-trichloromethyl-p-ethoxybenzyl-p-ethoxyaniline has been studied by the model ecosystem technique following application of 5.0 mg. of labeled compound to Sorghum plants. A summary of
metabolites from the organisms in the model ecosystem after 33 days were
identified by cochromatography with standards of known constitution, by
appropriate chromogenic reagents, and by high-resolution mass
spectrometry. The data of Table IV indicate the O-dealkylation of
Food Chem. 1 (1972). Ethoxychlor was found in the snail to 58.6 ppm and in the fish to 0.92 ppm, along with its ethylene and the mono- and bis-phenols formed by O-dealkylation. The ecological magnification (E.M.) of ethoxychlor, defined as the ratio of the parent material in the fish to the concentration in the water, was 1500-fold as compared with an E.M. of only 0.7-fold for the ethoxyaniline.
Comparing the Biodegradability Indices (B.I.=total recovered polar metabolites/total recovered nonpolar metabolites) the values are 0.44 for ethoxychlor and 2.0 for ethoxyaniline.

Phormia regina = assay: whole plant or invertebrate; settings: topical
Method: as §1, with “363 (1971).” left out, “Food Chem. 1145 (1970).” left out, “Tech.” for “Tech. 709 (1971).”
(§3) Since piperonyl butoxide serves to block the action of MFO, the synergized LD50 values express the intrinsic toxicity of the compounds. With the detoxifying action of MFO enzymes blocked, the intrinsic toxicity of the compounds can thus be measured.

Culex fatigans larvae = assay: LC50 to Culex fatigans larvae; type: in vivo, Culex pipiens quinquefasciatus Say
Description: (§4) World Health Org. 363 (1971). […] Food Chem. 1145 (1970). […] Sci. Tech. 709 (1971). The results are detailed in Table II. ##SPC1##

[5] = test system: Anopheles albimanus larvae; assay: LC50 to Anopheles albimanus larvae; type: in vivo, Anopheles albimanus Weid
Description: as §4

Musca domestica Snaidm = assay: Topical LD50 to adult female SNAIDM houseflies
Method: as §1, §3

Musca domestica Rsp = assay: Topical LD50 to adult female RSP houseflies
Method: as §1, §3

[6] = cited from earlier work
[7] = female RSP housefly, topical 1.0 μg, 24 hr
[8] = synergistic ratio: LD50 alone/LD50 synergized with piperonyl butoxide
[9] = model ecosystem, Kapoor et al., 20(1) J. Agr. Food Chem. 1 (1972)

COc1ccc(C(c2ccc(OC)cc2)C(Cl)(Cl)Cl)cc1 [methoxychlor, 1,1,1-trichloro-,2,2-bis(p-methoxyphenyl)ethane]
accumulation in animal tissues (in words) [1]: not generally accumulated in animal tissues
susceptibility to MFO enzymes (in words) [2]: readily attacked by MFO enzymes
insecticidal activity (in words) (insects): considerably less insecticidal activity than DDT towards other species of insects

CCOc1ccc(N)cc1 [C2 H5 OC6 H4 NH2, p-ethoxyaniline]
Female housefly, percent 3H in Excreta (Female housefly): 9.1%
Female housefly, percent 3H in Homogenate (Female housefly): 8.3%
Mouse liver, percent 3H in homogenate [3]: 13.7%
Salt-marsh caterpillar, percent 3H in Excreta (Salt-marsh caterpillar): 8.4%
Salt-marsh caterpillar, percent 3H in Homogenate (Salt-marsh caterpillar): 15.0%
Concentration of ethoxyaniline equivalents in Culex (mosquito) ([4]; 33 days): 0.01 ppm
Concentration of ethoxyaniline equivalents in Gambusia (fish) ([4]; 33 days): 0.03 ppm
Concentration of ethoxyaniline equivalents in H2O ([4]; H2O, 33 days): 0.053 ppm
Concentration of ethoxyaniline equivalents in Oedogonium (algae) ([4]; 33 days): 0.42 ppm
Concentration of ethoxyaniline equivalents in Physa (snail) ([4]; 33 days): 2.556 ppm

CSc1ccc(C(c2ccc(SC)cc2)C(Cl)(Cl)Cl)cc1 [methiochlor, 1,1,1-trichloro-2,2-bis-(p-methiophenyl)ethane]
susceptibility to MFO enzymes (in words) [2]: readily attacked by MFO enzymes
insecticidal activity (in words) (insects): considerably less insecticidal activity than DDT towards other species of insects

CCOc1ccc(C(=O)C(Cl)Cl)cc1 [C2 H5 OC6 H4 C(O)CHCl2, p-ethoxydichloroacetophenone]
Female housefly, percent 3H in Excreta (Female housefly): 9.7%
Female housefly, percent 3H in Homogenate (Female housefly): 10.4%
Salt-marsh caterpillar, percent 3H in Excreta (Salt-marsh caterpillar): 3.1%
Salt-marsh caterpillar, percent 3H in Homogenate (Salt-marsh caterpillar): 8.7%
Concentration of ethoxyaniline equivalents in Gambusia (fish) ([4]; 33 days): 0.28 ppm
Concentration of ethoxyaniline equivalents in Oedogonium (algae) ([4]; 33 days): 0.3 ppm
Concentration of ethoxyaniline equivalents in Physa (snail) ([4]; 33 days): 3.542 ppm

ClC(Cl)=C(c1ccc(Cl)cc1)c1ccc(Cl)cc1 [DDE, 1,1-dichloro-2,2-bis(p-chlorophenyl) ethylene]
susceptibility to MFO enzymes (in words) [2]: do not function on DDT and its metabolic derivatives DDE and DDD

CCOc1ccc(NC(c2ccc(OCC)cc2)C(Cl)(Cl)Cl)cc1 (stereo not drawn) [Compound III, α-trichloromethyl-p-ethoxybenzyl-p-ethoxyaniline]
LD50 (Phormia regina; Phormia regina, read-out: Topical LD50, Phormia regina, Alone): 33.7 mg/kg
Topical LD50, Phormia regina, with pb (Phormia regina; synergized with piperonyl butoxide): 9.7 μg per g
Female housefly, percent 3H in Excreta (Female housefly): 22.9%
Female housefly, percent 3H in Homogenate (Female housefly): 37.6%
3H recovered as body homogenate (Female housefly; [7]): 65%
3H recovered as body wash (Female housefly; [7]): 19.2%
3H recovered as excreta (Female housefly; [7]): 10%
recovery of the 3H (Female housefly; female RSP housefly, topical 1.0 μg, 24 hr, total): 94.2%
metabolic pathway in insect and mammal (in words) (Female housefly; insects (housefly, caterpillar) and mouse liver homogenate): metabolized in both the insect and the mammal by O-dealkylation to form both mono- and bis- phenols
Mouse liver, percent 3H in homogenate [3]: 30%
metabolic pathway (in words) ([3]; mouse liver homogenate, 1 hr): attacked by O-dealkylation to produce either one or both of the monophenolic derivatives
LC50 Culex fatigans larvae (Culex fatigans larvae): 0.19 ppm
LC50 Anopheles albimanus larvae [5]: 0.28 ppm
3H recovered in excreta (Salt-marsh caterpillar; 4th instar larvae, 0.5 mg fed, 24 hr): 75%
Salt-marsh caterpillar, percent 3H in Excreta (Salt-marsh caterpillar): 2.5%
Salt-marsh caterpillar, percent 3H in Homogenate (Salt-marsh caterpillar): 9.0%
LD50 (Musca domestica Snaidm; Musca domestica, topical, read-out: Topical LD50, Musca domestica Snaidm, Alone): 15.5 mg/kg
Topical LD50, Musca domestica Snaidm, with pb (Musca domestica Snaidm; SNAIDM strain, synergized with piperonyl butoxide, topical): 4.2 μg per g
SR, Musca domestica Snaidm (Musca domestica Snaidm; [8]): 3.7
Concentration of ethoxyaniline equivalents in Culex (mosquito) ([4]; 33 days): 0.28 ppm
Concentration of ethoxyaniline equivalents in Gambusia (fish) ([4]; 33 days): 0.04 ppm
Concentration of ethoxyaniline equivalents in H2O ([4]; H2O, 33 days): 0.055 ppm
Concentration of ethoxyaniline equivalents in Oedogonium (algae) ([4]; 33 days): 1.09 ppm
Concentration of ethoxyaniline equivalents in Physa (snail) ([4]; 33 days): 22.68 ppm
biodegradability (in words) [4]: substantially biodegradable; also recorded: by far superior in both E.M. and B.I
ecological magnification (E.M.) ([4]; ratio of parent material in fish to concentration in water): 0.7 fold
Total 3H in Culex (mosquito) (ethoxyaniline equivalents) ([4]; total 3H, Culex, 33 days): 1.0 ppm
Total 3H in Gambusia (fish) (ethoxyaniline equivalents) ([4]; total 3H, Gambusia, 33 days): 0.30 ppm
Total 3H in H2O (ethoxyaniline equivalents) ([4]; total 3H, H2O, 33 days): 0.363 ppm
Total 3H in Oedogonium (algae) (ethoxyaniline equivalents) ([4]; total 3H, Oedogonium, 33 days): 3.03 ppm
Total 3H in Physa (snail) (ethoxyaniline equivalents) ([4]; total 3H, Physa, 33 days): 36.0 ppm
LD50 (Musca domestica Rsp; Musca domestica, topical, read-out: Topical LD50, Musca domestica Rsp, Alone): 20.5 mg/kg
Topical LD50, Musca domestica Rsp, with pb (Musca domestica Rsp; RSP strain, synergized with piperonyl butoxide, topical): 6.5 μg per g
SR, Musca domestica Rsp (Musca domestica Rsp; [8]): 3.2

CCOc1ccc(C(c2ccc(OCC)cc2)C(Cl)(Cl)Cl)cc1 [Ethoxychlor, 2,2-bis(p-ethoxyphenyl)-1,1,1-trichloroethane]
concentration found in the fish [6, 9]: 0.92 ppm
concentration found in the snail [6, 9]: 58.6 ppm
ecological magnification (E.M.) ([6]; ratio of parent material in fish to concentration in water, Kapoor et al.): 1500 fold
Biodegradability Index (B.I.) ([6]; total recovered polar/total recovered nonpolar metabolites, ethoxychlor evaluated by Kapoor et al.): 0.44
biodegradability (in words) [4]: substantially biodegradable; also recorded: substantially more biodegradable than DDT

Oc1ccc(NC(c2ccc(O)cc2)C(Cl)(Cl)Cl)cc1 (stereo not drawn) [HOC6 H4 NHCH(CCl3)C6 H4 OH, α-trichloromethyl-p-hydroxybenzyl-p-hydroxyaniline]
Female housefly, percent 3H in Excreta (Female housefly): 5.7%
Female housefly, percent 3H in Homogenate (Female housefly): 8.4%
Concentration of ethoxyaniline equivalents in Gambusia (fish) ([4]; 33 days): 0.03 ppm
Concentration of ethoxyaniline equivalents in Physa (snail) ([4]; 33 days): 1.512 ppm

Clc1ccc(C(c2ccc(Cl)cc2)C(Cl)Cl)cc1 [DDD, 1,1-dichloro-2,2-bis(p-chlorophenyl)ethane]
susceptibility to MFO enzymes (in words) [2]: do not function on DDT and its metabolic derivatives DDE and DDD

Cc1ccc(C(c2ccc(C)cc2)C(Cl)(Cl)Cl)cc1 [methylchlor, 1,1,1-trichloro-2,2-bis(p-methylphenyl)ethane]
insecticidal activity (in words) (insects): considerably less insecticidal activity than DDT towards other species of insects
